{"source": "patent US12024489B2", "about": "“Complex salt of rupestonic acid and alkaloid, preparation method therefor and use thereof” (XIAMEN INSTITUTE OF RARE EARTH MATERIALS, priority 2022, dated 2024)", "key": {"[1]": {"system": "lung adenocarcinoma cell line (A549)", "experiment": "In vitro anti-tumor activity test (CCK8), lung adenocarcinoma cell line", "type": "cell-based", "conditions": "A549 cells, 48 h incubation, CCK8, absorbance 450 nm", "protocol": "(§1) The obtained Artemisia Rupestris complex salts were subjected to an in vitro anti-tumor activity test, in which the in vitro inhibitory activity of the Artemisia Rupestris complex salts on the lung adenocarcinoma cell line (A549) and cervical carcinoma cell line (Hela) was mainly researched. The specific test process was illustrated by the process for testing the lung adenocarcinoma cell line (A549):\n(§2) The prepared Artemisia Rupestris complex salt was weighed, added into a 5 mL plastic centrifuge tube and diluted to\n(§3) 1 mL with DMSO, to obtain a test sample at an initial concentration. Then the test sample at an initial concentration was serially diluted with DMSO to obtain test samples in 5 different concentration gradients in sequence, which were stored in a refrigerator at 4° C. for later use.\n(§4) The lung adenocarcinoma cell line (A549) was incubated in an incubator for 24 h under the conditions of 37° C., 5% CO2, and saturated humidity. When the cells were in logarithmic growth phase, the culture supernatant was discarded, and the residue was digested with 0.25% trypsin-EDTA solution. Then, the digestion was terminated with high glucose medium. The cells were seeded in a 96-well plate with a cell density of 5000 cells/well. The 96-well plate was incubated in an incubator for 24 h. Then the cell culture supernatant in the 96-well plate was discarded. 100 μL of high glucose medium was added to the 96-well plate, and test samples at different concentrations were added to wells at 1 μL/well (5 duplicate wells were set for each concentration). After the plate was incubated in an incubator for 48 h under the conditions of 37° C., saturated humidity and 5% CO2, 10 μL of CCK8 was added to each well, and the plate was then incubated in the incubator at 37° C. for 1-4 h. The absorbance of each well at 450 nm was measured on a multifunctional microplate reader. Inhibition rate %=[(ODcontrol cells−ODtreatment cells)/(ODcontrol cells−ODblank)]×100. Negative control was a mixed solution of Vhigh glucose medium and VDMSO at a ratio of 10:1."}, "[2]": {"system": "cervical carcinoma cell line (Hela)", "experiment": "In vitro anti-tumor activity test (CCK8), cervical carcinoma cell line", "type": "cell-based", "conditions": "Hela cells, 48 h incubation, CCK8, absorbance 450 nm", "protocol": "as §1, §2, §3, §4\nThe process for testing the inhibition of those compounds on the cervical cancer cell line (Hela) was the same as above."}}}
{"compound": "O=C1CCC[C@@H]2[C@H]3CCCN4CCC[C@@H](CN12)[C@@H]34", "note": "[Matrine]", "values": [{"measurement": "IC50", "setting": "[1]; Homo sapiens", "result": 6370, "unit": "µM"}, {"measurement": "IC50", "setting": "[2]; Homo sapiens", "result": 774, "unit": "µM"}]}
{"compound": "O=C1CCC[C@@H]2[C@H]3CCC[N+]4([O-])CCC[C@@H](CN12)[C@@H]34", "note": "(stereo partly shown) [Oxymatrine]", "values": [{"measurement": "IC50", "setting": "[2]; Homo sapiens", "result": 0.95, "unit": "µM"}]}
{"compound": "C=C(C(=O)O)[C@H]1CC[C@H](C)[C@@H]2CC(=O)C(C)=C2C1", "note": "[Rupestonic acid]", "values": [{"measurement": "IC50 (μM) A549", "setting": "[1]", "result": "Inactive"}, {"measurement": "IC50 (μM) Hela", "setting": "[2]", "result": "Inactive"}]}
{"compound": "O=C1C=CC[C@@H]2[C@H]3CCCN4CCC[C@@H](CN12)[C@@H]34", "note": "[Sophocarpine]", "values": [{"measurement": "IC50", "setting": "[1]; Homo sapiens", "result": 241, "unit": "µM"}, {"measurement": "IC50", "setting": "[2]; Homo sapiens", "result": 122, "unit": "µM"}]}
{"compound": "O=C1CCC[C@@H]2[C@H]3CCCN4CCC[C@H](CN12)[C@@H]34", "note": "[Sophoridine]", "values": [{"measurement": "IC50", "setting": "[1]; Homo sapiens", "result": 16000, "unit": "µM"}, {"measurement": "IC50", "setting": "[2]; Homo sapiens", "result": 1490, "unit": "µM"}]}
{"compound": "complex salt of rupestonic acid and matrine", "values": [{"measurement": "IC50", "setting": "[1]", "result": 1.49, "unit": "µM"}, {"measurement": "IC50", "setting": "[2]", "result": 11.8, "unit": "µM"}]}
{"compound": "complex salt of rupestonic acid and oxymatrine", "values": [{"measurement": "IC50", "setting": "[2]", "result": 25.2, "unit": "µM"}]}
{"compound": "complex salt of rupestonic acid and sophocarpine", "values": [{"measurement": "IC50", "setting": "[1]", "result": 714, "unit": "µM"}, {"measurement": "IC50", "setting": "[2]", "result": 115, "unit": "µM"}]}
{"compound": "complex salt of rupestonic acid and sophoridine", "values": [{"measurement": "IC50", "setting": "[1]", "result": 61.3, "unit": "µM"}, {"measurement": "IC50", "setting": "[2]", "result": 17.9, "unit": "µM"}]}
